Source: ChEMBL document CHEMBL5303573, “Mapping human microbiome drug metabolism by gut bacteria and their genes” (Nature, 2019)

Tests used:
[1] = bacteroides thetaiotaomicron, 12 h, 2 µM
Description: The drug is tested on Bacteroides thetaiotaomicron strain: VPI-5482 for biotransformation. The drug concentrations were measured before and after a 12-h incubation by liquid-chromatography-coupled mass spectrometry (LC–MS)

[2] = The drug is tested on Eubacterium hallii strain: DSM3353 for biotransformation. The drug concentrations were measured before and after a 12-h incubation by liquid-chromatography-coupled mass spectrometry (LC–MS); conditions: anaerobutyricum hallii, 2 µM
[3] = The drug is tested on Bifidobacterium breve strain: DSM20213 for biotransformation. The drug concentrations were measured before and after a 12-h incubation by liquid-chromatography-coupled mass spectrometry (LC–MS); conditions: 2 µM
[4] = bifidobacterium adolescentis, 12 h, 2 µM
Description: The drug is tested on Bifidobacterium adolescentis strain: ATCC 15703 for biotransformation. The drug concentrations were measured before and after a 12-h incubation by liquid-chromatography-coupled mass spectrometry (LC–MS)

[5] = The drug is tested on Bifidobacterium longum subsp. Infantis strain: CCUG52486 for biotransformation. The drug concentrations were measured before and after a 12-h incubation by liquid-chromatography-coupled mass spectrometry (LC–MS); conditions: 2 µM
[6] = bacteroides intestinalis, 12 h, 2 µM
Description: The drug is tested on Bacteroides intestinalis strain: DSM17393 for biotransformation. The drug concentrations were measured before and after a 12-h incubation by liquid-chromatography-coupled mass spectrometry (LC–MS)

[7] = The drug is tested on Bacteroides fragilis strain: HMW610 for biotransformation. The drug concentrations were measured before and after a 12-h incubation by liquid-chromatography-coupled mass spectrometry (LC–MS); conditions: 2 µM
[8] = The drug is tested on Bifidobacterium ruminantium strain: fecal isolate for biotransformation. The drug concentrations were measured before and after a 12-h incubation by liquid-chromatography-coupled mass spectrometry (LC–MS); conditions: 2 µM
[9] = bacteroides thetaiotaomicron, 12 h, 2 µM; remark: listed apart in the source
Description: The drug is tested on Bacteroides thetaiotaomicron strain: 3731 for biotransformation. The drug concentrations were measured before and after a 12-h incubation by liquid-chromatography-coupled mass spectrometry (LC–MS)

[10] = parabacteroides distasonis, 12 h, 2 µM
Description: The drug is tested on Parabacteroides distasonis strain: ATCC8503 for biotransformation. The drug concentrations were measured before and after a 12-h incubation by liquid-chromatography-coupled mass spectrometry (LC–MS)

[11] = The drug is tested on Escherichia coli strain: BW25113 for biotransformation. The drug concentrations were measured before and after a 12-h incubation by liquid-chromatography-coupled mass spectrometry (LC–MS); conditions: 2 µM
[12] = The drug is tested on Clostridium asparagiforme strain: DSM15981 for biotransformation. The drug concentrations were measured before and after a 12-h incubation by liquid-chromatography-coupled mass spectrometry (LC–MS); format: ADME; set-up: dose 2 uM, timepoint 0 vs 12 hours; conditions: enterocloster asparagiformis, 2 µM
[13] = The drug is tested on Clostridium scindens strain: ATCC35704 for biotransformation. The drug concentrations were measured before and after a 12-h incubation by liquid-chromatography-coupled mass spectrometry (LC–MS); conditions: 2 µM
[14] = The drug is tested on Bacteroides caccae strain: ATCC43185 for biotransformation. The drug concentrations were measured before and after a 12-h incubation by liquid-chromatography-coupled mass spectrometry (LC–MS); conditions: 2 µM
[15] = The drug is tested on Odoribacter splanchnicus strain: fecal isolate for biotransformation. The drug concentrations were measured before and after a 12-h incubation by liquid-chromatography-coupled mass spectrometry (LC–MS); conditions: 2 µM
[16] = The drug is tested on Collinsella intestinalis strain: DSM13280 for biotransformation. The drug concentrations were measured before and after a 12-h incubation by liquid-chromatography-coupled mass spectrometry (LC–MS); conditions: 2 µM
[17] = limosilactobacillus reuteri cf48-3a, 12 h, 2 µM
Description: The drug is tested on Lactobacillus reuteri CF48-3A strain: BEI HM-102 for biotransformation. The drug concentrations were measured before and after a 12-h incubation by liquid-chromatography-coupled mass spectrometry (LC–MS)

[18] = The drug is tested on Enterobacter cancerogenus strain: ATCC35316 for biotransformation. The drug concentrations were measured before and after a 12-h incubation by liquid-chromatography-coupled mass spectrometry (LC–MS); conditions: 2 µM
[19] = The drug is tested on Bacteroides pectinophilus strain: ATCC43243 for biotransformation. The drug concentrations were measured before and after a 12-h incubation by liquid-chromatography-coupled mass spectrometry (LC–MS); conditions: 2 µM
[20] = bacteroides stercoris, 12 h, 2 µM
Description: The drug is tested on Bacteroides stercoris strain: ATCC43183 for biotransformation. The drug concentrations were measured before and after a 12-h incubation by liquid-chromatography-coupled mass spectrometry (LC–MS)

Bacterial Biotransformation [1]	Bacterial Biotransformation [2]	Bacterial Biotransformation [3]	Bacterial Biotransformation [4]	Bacterial Biotransformation [5]	Bacterial Biotransformation [6]	Bacterial Biotransformation [7]	Bacterial Biotransformation [8]	Bacterial Biotransformation [9]	Bacterial Biotransformation [10]	Bacterial Biotransformation [11]	Bacterial Biotransformation [12]	Bacterial Biotransformation [13]	Bacterial Biotransformation [14]	Bacterial Biotransformation [15]	Bacterial Biotransformation [16]	Bacterial Biotransformation [17]	Bacterial Biotransformation [18]	Bacterial Biotransformation [19]	Bacterial Biotransformation [20]	SMILES
Compound metabolized	Compound metabolized	Compound metabolized	Compound metabolized	Compound metabolized	Compound metabolized	Compound metabolized	Compound metabolized	Compound metabolized	Compound metabolized	Compound metabolized	Compound metabolized	Compound metabolized	Compound metabolized	Compound metabolized	Compound metabolized	Compound metabolized	Compound metabolized	Compound metabolized	Compound metabolized	COc1ccnc(C[S+]([O-])c2nc3ccc(OC(F)F)cc3[nH]2)c1OC (stereo not given) [PANTOPRAZOLE]
Compound metabolized	Compound NOT metabolized	Compound metabolized	Compound metabolized	Compound metabolized	Compound metabolized	Compound metabolized	Compound metabolized	Compound metabolized	Compound metabolized	Compound metabolized	Compound metabolized	Compound metabolized	Compound metabolized	Compound metabolized	Compound metabolized	Compound NOT metabolized	Compound metabolized	Compound metabolized	Compound metabolized	CC(=O)OCC(=O)NCCCOc1cccc(CN2CCCCC2)c1 [ROXATIDINE ACETATE]
Compound metabolized	Compound metabolized	Compound metabolized	Compound metabolized	Compound metabolized	Compound metabolized	Compound metabolized	Compound metabolized	Compound metabolized	Compound metabolized	Compound metabolized	Compound metabolized	Compound metabolized	Compound metabolized	Compound metabolized	Compound metabolized	Compound metabolized	Compound metabolized	Compound metabolized	Compound metabolized	COc1ccc2[nH]c([S+]([O-])Cc3ncc(C)c(OC)c3C)nc2n1 (stereo not given) [TENATOPRAZOLE]
